Values quoted from earlier work, collected in EP3639895A1, “METHOD OF REDUCING PERSPIRATION” (priority 2018, dated 2020).

Tested on: Staphylococcus epidermidis
Conditions: 80% or greater reduction in growth of inoculum over 16 to 24 hours at 37°C

SMILES | minimum inhibitory concentration (MIC)
Oc1cc(Cl)ccc1Oc1ccc(Cl)cc1Cl [triclosan, 2',4,4'-trichloro,2-hydroxy-diphenyl ether] | 0.01 to 10 µg/mL
CC(C)=CCCC(C)=CCCC(C)=CCO [farnesol, 3,7,11-trimethyldodeca-2,6,10-trienol] | ca. 25 µg.ml^-1
CCO [ethanol] | greater than 1 mg.ml^-1
